As a reminder, the IC50 is the concentration needed to halve the response being measured. Low values mean higher potency, high ones lower potency.

Test [1] is described as follows: The inhibitory activity determined by using toluene-permeabilized cells of Escherichia coli and the specific nucleoside substrate of the translocase UMA5.
A short description of test [2]: Inhibitory activity of compound was determined against bacterial translocase.

`NC[C@H]1O[C@@H](OC[C@H]2O[C@@H](n3ccc(=O)[nH]c3=O)[C@H](O)[C@@H]2O)[C@H](O)[C@@H]1O` returned an IC50 in test [1] of 50 µM. `NC[C@H]1O[C@@H](O[C@@H](CO)[C@H]2O[C@@H](n3ccc(=O)[nH]c3=O)[C@H](O)[C@@H]2O)[C@H](O)[C@@H]1O` had an IC50 in test [2] of 425 µM. `NC[C@H]1O[C@@H](O[C@H](CO)[C@H]2O[C@@H](n3ccc(=O)[nH]c3=O)[C@H](O)[C@@H]2O)[C@H](O)[C@@H]1O`: in test [2], the IC50 was determined as 5 µM. Still for that read-out and setting: the result for `CSCCC(NC(=O)NC(Cc1cccc(O)c1)C(=O)O)C(=O)NC(C(=O)N/C=C1/CC(O)C(N2CCC(=O)NC2=O)O1)C(C)N(C)C(=O)C(N)Cc1cccc(O)c1` (stereo not given) reads 0.065 µM; that for `CC(=O)N[C@H]1[C@@H](O[C@@H]2O[C@H](CC(O)[C@H]3O[C@@H](n4ccc(=O)[nH]c4=O)[C@H](O)[C@@H]3O)[C@H](O)[C@H](O)[C@H]2NC(=O)/C=C/CC(C)C)O[C@H](CO)[C@@H](N)[C@@H]1O` (stereo not given in full) [TUNICAMYCIN], 0.48 µM.

The record behind these values is ChEMBL document CHEMBL1133275, “Synthesis of the nucleoside moiety of liposidomycins: elucidation of the pharmacophore of this family of MraY inhibitors” (Bioorg Med Chem Lett, 2000).
